# Source: patent publication EP3838286B1, “ANTIMICROBIAL PEPTIDE FROM POLISTES GALLICUS VENOM AND ITS ANALOGS” (Latoxan, priority 2019, dated 2021)
# Where two headings read alike, the source gives them in different places. Square brackets hold non-standard residues; d marks the D form. Peptide text beside a SMILES is read from it.
# Legend:
# PC-3 = test: Antitumor / antiproliferative activity (resazurin); type: cell-based, human; conditions: prostate cancer cells; 5,000 cells/well; 48 h; read-out: IC50 antiproliferative effect PC-3
# Protocol: (§1) Human cancer cell lines (Mia PaCa-2 (CRL-1420), PC-3 (CRL-1435), MDA-MB-231 (HTB-26)) and normal lung fibrobasts (BEAS-2B (ATCC CRL-9609) and IMR-90 (ATCC CCL-186)) were obtained from American Type Culture Collection (ATCC). HUVEC cells were obtained from Sigma Aldrich and were grown in defined all-in-one ready to use endothelial cell growth medium (Sigma Aldrich). Other cells were cultured in Dulbecco's modified Eagle's medium (DMEM, Gibco Life Technologies) supplemented with 10% heat-inactivated fetal calf serum (FCS, Lonza) at 37 °C in an incubator containing 5% CO2. Cells were sub-cultured in new media every 3-4 days. Antiproliferative / antitumor effects of the peptides were measured as previously described (Borie et al., Eur J Med Chem. 2018;148:306-313). Briefly, cells were detached from growing flask using trypsin, cells were counted and seeded in 96 well-plates in the growth media at an initial cell density of 5000 cells/well. Cells were left for 4 h to attach to the wells. Cells were then treated with increasing concentrations of peptides diluted in culture media. After 48 h incubation at 37 °C in a 5% CO2 incubator, wells were emptied and cell number was evaluated using Resazurin based in vitro toxicity assay kit (from Sigma-Aldrich) following manufacturer's instructions. Briefly, Resazurin stock solution was diluted 1:10 in sterile PBS containing calcium and magnesium (PBS, pH 7.4) and empty wells were filled with 100 µL of the diluted solution. After 4 h incubation at 37 °C, fluorescence intensity was measured using microplate reader (Synergy Mx, Biotek) with an excitation wavelength of 530 nm and an emission wavelength of 590 nm. The fluorescence values were normalized by the controls (buffer treated cells) and expressed as per-cent viability. The IC50 values of peptides on cell division / proliferation (i.e. the concentration of derivative causing a reduction of 50% of cell division) were determined using GraphPad ® Prism 7 software. t-Test and two way ANOVA analyses were used to address the significant differences between mean values with significance set at p < 0.05.
# MDA-MB-231 = test: Antitumor / antiproliferative activity (resazurin); type: cell-based, human; conditions: breast cancer cells; 5,000 cells/well; 48 h; read-out: IC50 antiproliferative effect MDA-MB-231
# Protocol: as §1
# MiaPaCa-2 = test: Antitumor / antiproliferative activity (resazurin); type: cell-based, human; conditions: pancreas cancer cells; 5,000 cells/well; 48 h; read-out: IC50 antiproliferative effect MiaPaCa-2
# Protocol: as §1
# Pseudomonas aeruginosa = test: Stability of the peptides to proteases and human serum (MIC of digested peptides); type: in vitro ADME
# Protocol: In order to evaluate the stability of the peptides to condition they will face in vivo, their resistance to proteases and human serum was evaluated (Oyama et al., 2017 Biofilms Microbiomes, Dec 1;3:33). Briefly, one volume of peptides (at 1 mM) was diluted in one volume of proteases (Pepsin, Trypsin, Chymotrypsin, Papain all from Sigma Aldrich and diluted at 2 mg/ml in HCl 10 mM pH2 for Pepsin, PBS pH 7 for Trypsin and Chymotrysin and PBS pH 6 for Papain) or human serum (Sigma Aldrich H4522). Peptides incubated in the same conditions in PBS were used as controls. After 4 h (for proteases) and 4 or 24 h (for human serum) of incubation at 37°C, PMSF was added to the reaction mixture at a final concentration of 100 µM to stop the digestion. MIC of the digested peptides were then determined as explained above.
# [1] = Cytotoxicity assay (resazurin); type: cell-based; conditions: human
# Protocol: Normal human cells used were BEAS-2B (ATCC CRL-9609), IMR-90 (ATCC CCL-186) and Human Umbilical Vein Endothelial Cells (HUVEC) (from Sigma-Aldrich) corresponding respectively to human normal lung epithelial, normal lung fibroblast cells and human normal endothelial cells. All cells except HUVEC cells were cultured in Dulbecco's modified essential medium (DMEM) supplemented with 10% fetal calf serum (FCS), 1% L-glutamine and 1% antibiotics (all from Invitrogen). HUVEC cells were cultured in specific endothelial media (from Sigma Aldrich). Cells were seeded onto […] maintained in a 5% CO2 incubator at 37 °C. Cells grown on 25 cm^2 flasks were detached using trypsin-EDTA solution (from Thermofisher), counted using Mallassez counting chamber and seeded into 96-well cell culture plates (Greiner bio-one) at approximately 10,000 cells per well. The cells were left to grow for 48-72 h at 37 °C in a 5% CO2 incubator until they reached confluence. Plates were then aspirated and increasing concentrations of peptides diluted in culture media were added to the cells for 48 h at 37 °C in a 5% CO2 incubator. At the end of the incubation, wells were emptied and cell viability was evaluated using Resazurin based in vitro toxicity assay kit (from Sigma-Aldrich) following manufacturer's instructions. Briefly, Resazurin stock solution was diluted 1:10 in sterile PBS containing calcium and magnesium (PBS, pH 7.4) and empty wells were filled with 100 µL of the diluted solution. After 4 h incubation at 37 °C, fluorescence intensity was measured using microplate reader (Synergy Mx, Biotek) with an excitation wavelength of 530 nm and an emission wavelength of 590 nm. The fluorescence values were normalized by the controls (buffer treated cells) and expressed as percent viability. The IC50 values of peptides on cell viability (i.e. the concentration of derivative causing a reduction of 50% of cell viability) were determined using GraphPad® Prism 7 software. t-Test and two way ANOVA analyses were used to address the significant differences between mean values with significance set at p < 0.05.
# [2] = tested on: B. subtilis (Nisin-resistant)
# M. smegmatis = conditions: 72 h
smiles,measurement,setting,value
"CC[C@@H](C)[C@@H](N)C(=O)N[C@H](CC(C)C)C(=O)N[C@H](CCCCN)C(=O)N[C@H](C)C(=O)N[C@@H](C(=O)N[C@H](CCCCN)C(=O)N[C@H](CCCCN)C(=O)N[C@H](CC(C)C)C(=O)N[C@H](CC(C)C)C(=O)N[C@H](CCCCN)C(=O)N[C@H](CC(N)=O)C(N)=O)[C@H](C)CC [LTX-D (gallicune-1), ilkaikkllkn] (H-[dI][dL][dK][dA][dI][dK][dK][dL][dL][dK][dN]-NH2)",IC50,PC-3,33.7 µM
same,IC50,MDA-MB-231,56.2 µM
same,IC50,MiaPaCa-2,6.51 µM
same,MBC (µM) V. alginolyticus,V. alginolyticus,0.78 µM
same,MIC (µM) V. alginolyticus,V. alginolyticus,0.78 µM
same,MBC (µM) C. rodentium,C. rodentium,25 µM
same,MIC (µM) C. rodentium,C. rodentium,12.5 µM
same,MIC (µM) Serum4h,"Pseudomonas aeruginosa; after 4 h at 37°C in human serum, against Pseudomonas aeruginosa",25 µM
same,MIC (µM) Chymotrypsin,"Pseudomonas aeruginosa; after 4 h at 37°C with chymotrypsin, pH 7, against Pseudomonas aeruginosa",25 µM
same,MIC (µM) Pepsin,"Pseudomonas aeruginosa; after 4 h at 37°C with pepsin, pH2, against Pseudomonas aeruginosa",25 µM
same,MIC (µM) Trypsin,"Pseudomonas aeruginosa; after 4 h at 37°C with trypsin, pH 7, against Pseudomonas aeruginosa",25 µM
same,MIC (µM) Serum24h,"Pseudomonas aeruginosa; after 24 h at 37°C in human serum, against Pseudomonas aeruginosa",12.5 µM
same,stability to proteases and human serum,"Pseudomonas aeruginosa; pepsin, trypsin, chymotrypsin, human serum",not affected
same,MIC (µM) Control,"Pseudomonas aeruginosa; peptide incubated in PBS, not treated with proteases, against Pseudomonas aeruginosa",25 µM
same,MBC (µM) C. farmeri,C. farmeri,6.25 µM
same,MIC (µM) C. farmeri,C. farmeri,6.25 µM
same,MBC (µM) P. aeruginosa 01,P. aeruginosa 01,25 µM
same,MIC (µM) P. aeruginosa 01,P. aeruginosa 01,6.25 µM
same,MBC (µM) S. flexneri,S. flexneri,12.5 µM
same,MIC (µM) S. flexneri,S. flexneri,12.5 µM
same,MBC (µM) P. aeruginosa FQR,P. aeruginosa FQR,12.5 µM
same,MIC (µM) P. aeruginosa FQR,P. aeruginosa FQR,6.25 to 12.5 µM
same,MBC (µM) H. pylori,H. pylori,50 µM
same,MIC (µM) H. pylori,H. pylori,50 µM
same,CC50 at 48 h,"[1]; BEAS-2B normal lung epithelial cells, normal lung epithelium, read-out: Cytotoxicity IC50 (µM) BEAS",843 µM
same,CC50 at 48 h,"[1]; HUVEC (human umbilical vein endothelial cells), normal endothelium, read-out: Cytotoxicity IC50 (µM) HUVEC",869 µM
same,CC50 at 48 h,"[1]; IMR-90 normal lung fibroblast cells, read-out: Cytotoxicity IC50 (µM) IMR90",653 µM
same,MIC (µM) E. coli,E. coli,6.25 µM
same,MBC (µM) S. enterica,S. enterica,25 µM
same,MIC (µM) S. enterica,S. enterica,25 µM
same,MBC (µM) A. gandavensis,A. gandavensis,1.5 µM
same,MIC (µM) A. gandavensis,A. gandavensis,1.5 µM
same,MBC (µM) B. subtilis (Nisin-resistant),[2],6.25 µM
same,MIC (µM) B. subtilis (Nisin-resistant),[2],6.25 µM
same,MIC (µM) M. smegmatis,M. smegmatis,25 µM
same,MBC (µM) E. coli EHEC K88,E. coli EHEC K88,50 µM
same,MIC (µM) E. coli EHEC K88,E. coli EHEC K88,50 µM
same,MBC (µM) P. aeruginosa,P. aeruginosa,1.5 µM
same,MIC (µM) P. aeruginosa,P. aeruginosa,1.5 µM
same,MIC PA,P. aeruginosa,1.5 µM
same,MBC (µM) L. lactis,L. lactis,1.5 µM
same,MIC (µM) L. lactis,L. lactis,1.5 µM
